Experimental data reported in patent publication EP4775582A1, “MACROCYCLIC COMPOUND AND ANTIBODY-DRUG CONJUGATE THEREOF” (Genfleet Therapeutics (Shanghai) Inc., priority 2023, dated 2025).
≈ marks a conversion by molar mass, not a printed value. Read-outs that look alike come from different tables or passages of the source.

Assays:
H441 p-ERK = assay: Cell p-ERK assay (HTRF), NCI-H441 cells; format: cell-based, human; settings: Homo sapiens; NCI-H441 cells (KRAS G12V), 3 h incubation
How it was run: (§1)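 AsPC-1 (10000/well) or NCI-H441 (20000/well) cells were seeded overnight and then exposed to compound for 3 h at 37 °C. Lysates were probed for ERK phospho-T202/Y204 by HTRF with a 4-hour antibody incubation. IC50 values came from four-parameter fits of inhibition against log concentration.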

AsPC-1 p-ERK = assay: Cell p-ERK assay (HTRF), AsPC-1 cells; format: cell-based, human; settings: Homo sapiens
How it was run: as §1

NCI-H441 cells = assay: 3D cell proliferation assay (CellTiter Glo-3D), NCI-H441; format: cell-based, human; settings: Homo sapiens, 120 h, NCI-H441 cells (KRAS G12V), 2% FBS, 5 days, read-out: H441 AP IC50
How it was run: (§2)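 Cells seeded at 800 per well (AsPC-1, NCI-H441) in 2% FBS medium and incubated overnight at 37 °C, 5% CO2. Compounds added next day from 10× stock, then 5 days' further culture. Viability read by CellTiter-Glo luminescence; IC50 from four-parameter fit of inhibition versus log concentration.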

AsPC-1 cells = assay: 3D cell proliferation assay (CellTiter Glo-3D), AsPC-1; format: cell-based, human; settings: Homo sapiens, ASPC1, 120 h
How it was run: as §2

[1] = Solubility experiment (HPLC, external standard); format: physicochemical; settings: 37 °C, 24 h; for solubility at 24 h: ph 7.4 medium, pH 7.4, pH 7.4 medium
Procedure: This experiment was intended to determine the solubility of the compounds in media at different pH values. The materials used in the experiment included: a pH 1.2 medium, a pH 4.5 medium, a pH 7.4 medium, and a diluent (acetonitrile/water = 50/50). 1. The preparation methods for media are as follows:
One centrifuge tube (containing about 2 mg of the test sample) was taken, 1 mL of DMSO was added to completely dissolve the test sample, and the mixture was marked as stock-1. 0.2 mL of stock-1 was transferred into a 10 mL volumetric flask, and then the 50:50 (acetonitrile/water) solution was added to bring the volume to the mark, so as to give a control solution.
Additionally, centrifuge tubes each containing about 1 mg of the test sample were taken, 1 mL of the corresponding medium solution was then added, and the tubes were shaken on a 37 °C water bath shaker for 24 h. After centrifugation for 3 times (centrifugation time: 10 min, rotation speed: 12000 rpm), 0.2 mL of the supernatants were taken, 0.8 mL of the diluent (acetonitrile/water = 50/50) was added to each tube, and the mixtures were vortexed and mixed well to give solubility samples.
The solubility samples described above and the control solution were sequentially analyzed by high performance liquid chromatography. The chromatographic conditions are as follows:
The actual concentration of the compound in each solubility sample was calculated according to an external standard method. Concentration (μg/mL) = (ASample × CControl × DSample)/(AControl)∗1000; [formula] Asample: the peak area of the target peak in the sample solution; Ccontrol: the concentration (mg/mL) of the control solution; Dsample: the dilution factor of the sample solution; Acontrol: the peak area of the target peak in the control solution.

[2] = ASPC1, 3 h, read-out: AsPC-1 p-ERK IC50(nM)
[3] = ASPC1, AsPC-1 cells (KRAS G12D), 3 h incubation, read-out: AsPC-1 p-ERK IC50
[4] = AsPC-1 cells (KRAS G12D), 3D, 2% FBS, 5 days, read-out: AsPC-1 AP IC50

## COCCn1c(-c2cc(C#CCN3CCN(C(=O)CO)CC3)cnc2[C@H](C)OC)c2c3cc(ccc31)-c1csc(n1)C[C@H](NC(=O)[C@H]1[C@H](C)[C@@H]1C)C(=O)N1CCC[C@H](N1)C(=O)OCC(C)(C)C2 (atropisomer, axis not shown; (Ra)) [Compound Z63-1, (2R,3S)-N-((6^3S,4S,Z)-1^2-(5-(3-(4-(2-hydroxyacetyl)piperazin-1-yl)prop-1-yn-1-yl)-(Ra)-2-((S)-1-methoxyethyl)pyridin-3-yl)-1'-(2-methoxyethyl)-10,10-dimethyl-5,7-dioxo-6^1,6^2,6^3,6^4,6^5,6^6-hexahydro-1^1H-8-oxa-2(4,2)-thiazola-1(5,3)-indola-6(1,3)-pyridazinacycloundecaphane-4-yl)-2,3-dimethylcyclopropane-1-carboxamide]
H441 p-ERK
  IC50: 0.55 nM
AsPC-1 p-ERK; [2]
  IC50: 0.61 nM
NCI-H441 cells
  IC50: 0.32 nM
AsPC-1 cells; read-out: AsPC-1 AP IC50(nM)
  IC50: 0.36 nM
[1]; pH 7.4 medium, 1440 min
  Solubility at pH 7.4 (µg/mL): 7.53 µg/mL

## CCn1c(-c2cc(OCCN3CCC(C#N)(CN)CC3)c[n+]([O-])c2[C@H](C)OC)c2c3cc(ccc31)-c1csc(n1)C[C@H](NC(=O)[C@H]1[C@H](C)[C@@H]1C)C(=O)N1CCC[C@H](N1)C(=O)OCC(C)(C)C2 (atropisomer, axis not shown; (Ra)) [Compound Z73, 5-(2-(4-(aminomethyl)-4-cyanopiperidin-1-yl)ethoxy)-(Ra)-3-((6^3S,4S,Z)-4-((1r,2R,3S)-2,3-dimethylcyclopropane-1-carboxamido)-1^1-ethyl-10,10-dimethyl-5,7-dioxo-6^1,6^2,6^3,6^4,6^5,6^6-hexahydro-1^1H-8-oxa-2(4,2)-thiazola-1(5,3)-indola-6(1,3)-pyridazinacycloundecaphane-1^2-yl)-2-((S)-1-methoxyethyl)pyridine 1-oxide]
H441 p-ERK
  IC50: 3.84 nM
AsPC-1 p-ERK; [3]
  IC50: 3.19 nM
NCI-H441 cells
  IC50: 2.48 nM
AsPC-1 cells; [4]
  IC50: 2.5 nM
[1]
  solubility at 24 h: 96.6 µg/mL (≈ 104 µM)

## CCn1c(-c2cc(C#CCN3CCC(C#N)(CO)CC3)c[n+]([O-])c2[C@H](C)OC)c2c3cc(ccc31)-c1csc(n1)C[C@H](NC(=O)[C@H]1[C@H](C)[C@@H]1C)C(=O)N1CCC[C@H](N1)C(=O)OCC(C)(C)C2 (atropisomer, axis not shown; (Ra)) [Compound Z45-1, 5-(3-(4-cyano-4-(hydroxymethyl)piperidin-1-yl)prop-1-yn-1-yl)-(Ra)-3-((6^3S,4S,Z)-4-((1r,2R,3S)-2,3-dimethylcyclopropane-1-carboxamido)-1^1-ethyl-10,10-dimethyl-5,7-dioxo-6^1,6^2,6^3,6^4,6^5,6^6-hexahydro-1^1H-8-oxa-2(4,2)-thiazola-1(5,3)-indola-6(1,3)-pyridazinacycloundecaphane-1^2-yl)-2-((S)-1-methoxyethyl)pyridine 1-oxide]
H441 p-ERK
  IC50: 0.6 nM
AsPC-1 p-ERK; [3]
  IC50: 0.28 nM
NCI-H441 cells
  IC50: 0.53 nM
AsPC-1 cells; [4]
  IC50: 0.12 nM
[1]
  solubility at 24 h: 5.01 µg/mL (≈ 5.45 µM)

## CCn1c(-c2cc(C#CCN3CCS(=N)(=O)CC3)cnc2[C@H](C)OC)c2c3cc(ccc31)-c1csc(n1)C[C@H](NC(=O)[C@H]1[C@@H]3COC[C@@H]31)C(=O)N1CCC[C@H](N1)C(=O)OCC(C)(C)C2 (atropisomer, axis not shown; (Ra)) [Compound Z27]
H441 p-ERK
  IC50: 0.64 nM
AsPC-1 p-ERK; [2]
  IC50: 0.51 nM
NCI-H441 cells
  IC50: 0.44 nM
AsPC-1 cells; read-out: AsPC-1 AP IC50(nM)
  IC50: 0.78 nM
[1]
  solubility at 24 h: 20.8 µg/mL (≈ 22.8 µM)

## CO[C@@H](C)c1ncc(C#CCN2CCS(=O)(=O)CC2)cc1-c1c2c3cc(ccc3n1CCCO)-c1csc(n1)C[C@H](NC(=O)[C@H]1[C@@H]3COC[C@@H]31)C(=O)N1CCC[C@H](N1)C(=O)OCC(C)(C)C2 (atropisomer, axis not shown; (Ra)) [Compound Z24-1, (1R,5S,6r)-N-((6^3S,4S,Z)-1^2-(5-(3-(1,1-dioxidothiomorpholino)prop-1-yn-1-yl)-(Ra)-2-((S)-1-methoxyethyl)-pyridin-3-yl)-1^1-(3-hydroxypropyl)-10,10-dimethyl-5,7-dioxo-6^1,6^2,6^3,6^4,6^5,6^6-hexahydro-1^1H-8-oxa-2(4,2)-thiazola-1(5,3)-indola-6(1,3)-pyridazinacycloundecaphane-4-yl)-3-oxabicyclo[3.1.0]hexane-6-carboxamide]
H441 p-ERK
  IC50: 3.76 nM
AsPC-1 p-ERK; [2]
  IC50: 2.64 nM
NCI-H441 cells
  IC50: 1.77 nM
AsPC-1 cells; read-out: AsPC-1 AP IC50(nM)
  IC50: 1.73 nM
[1]
  solubility at 24 h: 12.3 µg/mL (≈ 13.1 µM)
